Earlier results as cited in patent publication EP3568126B1, “[…] COMPOSITION” (Torrent Pharmaceuticals Limited, priority 2017, dated 2018).

Q: For “3-[(1R,2R)-3-(dimethylamino)-1-ethyl-2-methylpropyl]phenol [tapentadol]”, which “time of maximum serum concentration” value (after oral dosing) is on record?
A: Its value is “around 1.25 hours”.

Q: And the “administered tapentadol metabolized (first-pass metabolism)” value (oral administration)?
A: The value was “about 97%”.

Q: And the bioavailability (oral administration)?
A: Its bioavailability is 32%.

Q: And the “time after administration at which absorption occurs” value (oral formulations)?
A: Its value is “at least 45 minutes”.
